Experimental data as given in US20260356809A1 (The United States of America, as represented by the …, priority 2022, published 2026).
Read-outs that look alike come from different tables or passages of the source.

How the values were obtained:
[1] = target: T1, 5-HT2C (Homo sapiens, UniProt P28335); experiment: 5-HT2C IP-1, antagonist; type: cell-based
T1 sequence (P28335 33-458): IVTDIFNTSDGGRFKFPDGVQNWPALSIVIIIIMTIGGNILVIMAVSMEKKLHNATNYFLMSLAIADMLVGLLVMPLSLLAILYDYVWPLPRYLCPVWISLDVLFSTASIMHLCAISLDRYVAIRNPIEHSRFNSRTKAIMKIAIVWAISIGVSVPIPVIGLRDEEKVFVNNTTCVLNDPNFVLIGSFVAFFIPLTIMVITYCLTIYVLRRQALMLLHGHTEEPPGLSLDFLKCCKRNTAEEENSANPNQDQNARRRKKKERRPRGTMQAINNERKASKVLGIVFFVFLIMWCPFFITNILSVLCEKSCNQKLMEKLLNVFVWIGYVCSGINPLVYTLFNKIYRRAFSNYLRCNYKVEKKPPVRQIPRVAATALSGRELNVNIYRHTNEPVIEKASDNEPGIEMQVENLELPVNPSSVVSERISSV

[2] = target: T2, 5-HT1A (Homo sapiens, UniProt P08908); experiment: 5-HT1A [35S]GTPγS, agonist; type: biochemical
T2 sequence (P08908 1-422): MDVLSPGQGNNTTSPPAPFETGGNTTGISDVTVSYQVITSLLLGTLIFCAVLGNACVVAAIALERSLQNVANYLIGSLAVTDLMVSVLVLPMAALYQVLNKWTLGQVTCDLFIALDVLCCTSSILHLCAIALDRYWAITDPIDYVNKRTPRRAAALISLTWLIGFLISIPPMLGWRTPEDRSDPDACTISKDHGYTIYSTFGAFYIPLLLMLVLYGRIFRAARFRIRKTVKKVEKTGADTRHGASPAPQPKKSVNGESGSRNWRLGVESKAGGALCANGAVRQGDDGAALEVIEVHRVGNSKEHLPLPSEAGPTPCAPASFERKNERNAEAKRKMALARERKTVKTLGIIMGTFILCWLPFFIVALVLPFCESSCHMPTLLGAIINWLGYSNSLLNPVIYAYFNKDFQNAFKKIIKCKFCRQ

[3] = target: T1, 5-HT2C; experiment: 5-HT2C IP-1, agonist; type: cell-based
[4] = target: T3, D2LR (Homo sapiens, UniProt P14416); type: cell-based; conditions: miniG recruitment assay
T3 construct: expressed in transfected cells; host or cells: HEK 293T, transient
T3 sequence (P14416 whole entry): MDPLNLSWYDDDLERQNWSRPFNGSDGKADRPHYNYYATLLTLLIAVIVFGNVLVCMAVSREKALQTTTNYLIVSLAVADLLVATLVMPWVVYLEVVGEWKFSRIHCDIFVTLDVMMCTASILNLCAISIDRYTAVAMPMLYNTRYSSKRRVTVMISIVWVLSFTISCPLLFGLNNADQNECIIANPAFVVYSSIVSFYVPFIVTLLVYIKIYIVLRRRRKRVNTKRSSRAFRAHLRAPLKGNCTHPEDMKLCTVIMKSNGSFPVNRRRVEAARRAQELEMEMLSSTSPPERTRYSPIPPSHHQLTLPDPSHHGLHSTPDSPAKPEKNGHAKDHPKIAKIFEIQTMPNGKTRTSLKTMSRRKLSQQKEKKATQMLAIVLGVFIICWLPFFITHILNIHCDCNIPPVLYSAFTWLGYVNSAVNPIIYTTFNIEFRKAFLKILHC

[5] = test system: cocaine self-administration in rats; experiment: cocaine self-administration under progressive ratio (PR) break-point; type: in vivo, Long-Evans rats; conditions: i.p. 30 min prior
[6] = target: T3, D2LR; type: cell-based; conditions: GPA GαoA assay
[7] = target: T4, 5-HT2A (Homo sapiens, UniProt P28223); experiment: 5-HT2A IP-1, agonist; type: cell-based; conditions: agonist mode
T4 sequence (P28223 whole entry, species assumed): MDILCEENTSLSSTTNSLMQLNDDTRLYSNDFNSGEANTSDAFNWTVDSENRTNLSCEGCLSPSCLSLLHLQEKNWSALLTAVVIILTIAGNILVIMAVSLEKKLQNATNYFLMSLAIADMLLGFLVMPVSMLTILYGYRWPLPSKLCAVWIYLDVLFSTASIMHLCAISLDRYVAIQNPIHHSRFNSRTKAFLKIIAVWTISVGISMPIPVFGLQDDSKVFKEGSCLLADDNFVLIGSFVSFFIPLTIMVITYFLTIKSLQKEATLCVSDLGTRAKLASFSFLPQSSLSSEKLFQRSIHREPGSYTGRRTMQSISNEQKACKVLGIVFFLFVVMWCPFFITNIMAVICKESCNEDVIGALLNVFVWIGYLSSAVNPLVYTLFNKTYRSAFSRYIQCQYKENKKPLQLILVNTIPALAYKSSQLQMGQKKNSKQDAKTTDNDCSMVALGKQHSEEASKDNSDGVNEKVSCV

[8] = target: T4, 5-HT2A; type: cell-based; conditions: antagonist mode
[9] = target: T5, 5-HT2B (Homo sapiens, UniProt P41595); experiment: 5-HT2B IP-1, antagonist; type: cell-based; conditions: for 5-HT2B IP-1 Emax ± SEM: antagonist mode
T5 sequence (P41595 whole entry, species assumed): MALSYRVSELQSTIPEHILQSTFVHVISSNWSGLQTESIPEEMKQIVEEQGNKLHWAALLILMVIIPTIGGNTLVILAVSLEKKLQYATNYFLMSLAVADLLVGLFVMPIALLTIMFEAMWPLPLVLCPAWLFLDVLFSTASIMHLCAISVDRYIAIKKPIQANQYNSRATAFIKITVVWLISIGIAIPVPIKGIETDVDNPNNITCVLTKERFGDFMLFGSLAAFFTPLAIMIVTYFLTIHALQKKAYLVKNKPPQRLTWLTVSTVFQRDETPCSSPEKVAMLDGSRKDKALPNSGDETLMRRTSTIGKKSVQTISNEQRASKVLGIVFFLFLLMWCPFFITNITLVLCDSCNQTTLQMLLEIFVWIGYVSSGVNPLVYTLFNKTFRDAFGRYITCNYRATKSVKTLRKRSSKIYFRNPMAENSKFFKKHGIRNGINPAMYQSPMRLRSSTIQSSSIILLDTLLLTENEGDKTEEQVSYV

[10] = target: T5, 5-HT2B; experiment: 5-HT2B IP-1, agonist; type: cell-based; conditions: agonist mode
[11] = target: T6, D4R (Homo sapiens, UniProt P21917); experiment: D4R off-target binding, [3H]-spiperone; conditions: read-out: D4R Ki ± SEM
T6 sequence (P21917 1-419): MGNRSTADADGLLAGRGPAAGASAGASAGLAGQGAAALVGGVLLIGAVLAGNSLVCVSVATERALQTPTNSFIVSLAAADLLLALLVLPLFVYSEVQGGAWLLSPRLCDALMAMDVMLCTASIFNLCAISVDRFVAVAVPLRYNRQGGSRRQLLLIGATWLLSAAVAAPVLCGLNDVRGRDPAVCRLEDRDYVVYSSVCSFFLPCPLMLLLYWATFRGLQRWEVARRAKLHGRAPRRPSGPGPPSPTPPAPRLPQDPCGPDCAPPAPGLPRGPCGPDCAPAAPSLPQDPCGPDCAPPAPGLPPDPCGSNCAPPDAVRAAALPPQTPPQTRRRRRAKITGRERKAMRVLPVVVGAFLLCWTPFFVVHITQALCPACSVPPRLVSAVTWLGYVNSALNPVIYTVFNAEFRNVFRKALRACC

[12] = target: T5, 5-HT2B; experiment: 5-HT2B off-target binding, [3H]5-HT; conditions: read-out: 5-HT2B Ki ± SEM
[13] = target: T2, 5-HT1A; experiment: 5-HT1A off-target binding, [3H]-8-OH-DPAT; conditions: read-out: 5-HT1A Ki ± SEM

SMILES	IC50 [1] [nM]	5-HT2C IP-1 Emax ± SEM ([1]; antagonist mode) [%]	5-HT1A [35S]GTPγS Emax ± SEM ([2]; agonist mode) [%]	5-HT2C IP-1 Emax ± SEM ([3]; agonist mode) [%]	EC50 ([3]; agonist mode, read-out: 5-HT2C IP-1 EC50 ± SEM) [nM]	D2R activity in words, miniG assay [4]	effect on lever pressing / PR break-point for cocaine [5]	D2R activity in words, GPA assay [6]	5-HT2A IP-1 Emax ± SEM [7] [%]	5-HT2A IP-1 Emax ± SEM [8] [%]	EC50 [3] [nM]	5-HT2B IP-1 Emax ± SEM [9] [%]	5-HT2B IP-1 Emax ± SEM [10] [%]	Ki [11] [nM]	Ki [12] [nM]	EC50 [2] [nM]	Ki [13] [nM]	IC50 [9] [nM]	EC50 ([10]; read-out: 5-HT2B IP-1 EC50 ± SEM) [nM]
CN(C)C(=O)N[C@H]1CC[C@H](CCN2CCN(c3cccc(Cl)c3Cl)CC2)CC1 [Compound 6a, 3-(trans-4-(2-(4-(2,3-Dichlorophenyl)piperazin-1-yl)ethyl)cyclohexyl)-1,1-dimethylurea]	> 5000	9.2 ± 2.7	89.6 ± 3.6	49.2 ± 6.6	215 ± 22	D2R partial agonists	reduce the reinforcing efficacy of cocaine	maximal effect similar to quinpirole	–	–	–	–	–	–	–	–	–	–	–
CCc1cccc(N2CCN(CC[C@H]3CC[C@H](NC(=O)CCOC)CC3)CC2)c1Cl [Compound 13b, N-(trans-4-(2-(4-(2-Chloro-3-ethylphenyl)piperazin-1-yl)ethyl)cyclohexyl)-3-methoxypropanamide]	–	–	–	–	–	–	–	–	25.9 ± 1.9	62.7 ± 5.8	43.5 ± 5.3	100 ± 0	<1	–	–	–	–	–	–
COCCC(=O)N[C@H]1CC[C@H](CCN2CCN(c3cccc(OC)c3F)CC2)CC1 [Compound 13c, N-(trans-4-(2-(4-(2-Fluoro-3-methoxyphenyl)piperazin-1-yl)ethyl)cyclohexyl)-3-methoxypropanamide]	–	–	–	–	–	full agonists	–	full agonists	–	–	–	82 ± 18	<1	734 ± 16	29.6 ± 9.5	121 ± 10	69.9 ± 1.7	519 ± 81	> 10000
